Measurements reported in patent publication US8192962B2, “Processes for detecting toxic substances” (Daikin Industries, Ltd., priority 2001, dated 2012).

Test system: Transport facilitation protein genes
Test: DNA chip mRNA expression in yeast, transport facilitation protein genes (Table 5)
Assay type: cell-based, Saccharomyces cerevisiae S288C
Summary of the method: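 First, S288C yeast grown in YPD at 25° C. are dosed in log phase with one toxicant (growth-inhibiting, not lethal) for 2 h. Next, total RNA is extracted and poly(A) mRNA isolated and reverse-transcribed with Cy3/Cy5-dUTP. Finally, whole-genome chip fluorescence is read relative to unexposed cells.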

In the case of `Cl[C@H]1[C@H](Cl)[C@@H](Cl)[C@@H](Cl)[C@H](Cl)[C@H]1Cl` [(7), γ-hexachlorocyclohexane], the “The level of expressed mRNA in the presence of chemical substance/The level of expressed mRNA in the absence of chemical substance” value (yeast gene YBL030C) is reported as 0.9, the “The level of expressed mRNA in the presence of chemical substance/The level of expressed mRNA in the absence of chemical substance” value (yeast gene YBL099W) is reported as 0.9 and the “The level of expressed mRNA in the presence of chemical substance/The level of expressed mRNA in the absence of chemical substance” value (yeast gene YBR052C) is reported as 3.0. The “The level of expressed mRNA in the presence of chemical substance/The level of expressed mRNA in the absence of chemical substance” value (yeast gene YBR127C) was 0.9, the “The level of expressed mRNA in the presence of chemical substance/The level of expressed mRNA in the absence of chemical substance” value (yeast gene YBR132C) was 1.1 and the “The level of expressed mRNA in the presence of chemical substance/The level of expressed mRNA in the absence of chemical substance” value (yeast gene YBR207W) was 4.3. For the same compound, the “The level of expressed mRNA in the presence of chemical substance/The level of expressed mRNA in the absence of chemical substance” value (yeast gene YBR293W) was 0.9, the “The level of expressed mRNA in the presence of chemical substance/The level of expressed mRNA in the absence of chemical substance” value (yeast gene YBR294W) was 1.1 and the “The level of expressed mRNA in the presence of chemical substance/The level of expressed mRNA in the absence of chemical substance” value (yeast gene YBR295W) was 1.6. For the same compound, the “The level of expressed mRNA in the presence of chemical substance/The level of expressed mRNA in the absence of chemical substance” value (yeast gene YBR298C) was 1.7, the “The level of expressed mRNA in the presence of chemical substance/The level of expressed mRNA in the absence of chemical substance” value (yeast gene YCL025C) was 0.7 and the “The level of expressed mRNA in the presence of chemical substance/The level of expressed mRNA in the absence of chemical substance” value (yeast gene YCL038C) was 1.5. For the same compound, the “The level of expressed mRNA in the presence of chemical substance/The level of expressed mRNA in the absence of chemical substance” value (yeast gene YCR024C-A) was 0.8, the “The level of expressed mRNA in the presence of chemical substance/The level of expressed mRNA in the absence of chemical substance” value (yeast gene YCR037C) was 1.0 and the “The level of expressed mRNA in the presence of chemical substance/The level of expressed mRNA in the absence of chemical substance” value (yeast gene YCR098C) was 1.2. For the same compound, the “The level of expressed mRNA in the presence of chemical substance/The level of expressed mRNA in the absence of chemical substance” value (yeast gene YDL128W) was 0.9, the “The level of expressed mRNA in the presence of chemical substance/The level of expressed mRNA in the absence of chemical substance” value (yeast gene YDL198C) was 1.0 and the “The level of expressed mRNA in the presence of chemical substance/The level of expressed mRNA in the absence of chemical substance” value (yeast gene YDL210W) was 0.8. The “The level of expressed mRNA in the presence of chemical substance/The level of expressed mRNA in the absence of chemical substance” value (yeast gene YDL245C) was 1.2, the “The level of expressed mRNA in the presence of chemical substance/The level of expressed mRNA in the absence of chemical substance” value (yeast gene YDR038C) was 0.7 and the “The level of expressed mRNA in the presence of chemical substance/The level of expressed mRNA in the absence of chemical substance” value (yeast gene YDR039C) was 0.8. For the same compound, the “The level of expressed mRNA in the presence of chemical substance/The level of expressed mRNA in the absence of chemical substance” value (yeast gene YDR086C) was 2.0, the “The level of expressed mRNA in the presence of chemical substance/The level of expressed mRNA in the absence of chemical substance” value (yeast gene YDR270W) was 1.7 and the “The level of expressed mRNA in the presence of chemical substance/The level of expressed mRNA in the absence of chemical substance” value (yeast gene YDR298C) was 1.0. For the same compound, the “The level of expressed mRNA in the presence of chemical substance/The level of expressed mRNA in the absence of chemical substance” value (yeast gene YDR342C) was 0.8, the “The level of expressed mRNA in the presence of chemical substance/The level of expressed mRNA in the absence of chemical substance” value (yeast gene YDR343C) was 0.7 and the “The level of expressed mRNA in the presence of chemical substance/The level of expressed mRNA in the absence of chemical substance” value (yeast gene YDR345C) was 1.1. The “The level of expressed mRNA in the presence of chemical substance/The level of expressed mRNA in the absence of chemical substance” value (yeast gene YDR387C) was 1.3, the “The level of expressed mRNA in the presence of chemical substance/The level of expressed mRNA in the absence of chemical substance” value (yeast gene YDR497C) was 0.5 and the “The level of expressed mRNA in the presence of chemical substance/The level of expressed mRNA in the absence of chemical substance” value (yeast gene YEL027W) was 0.8. For the same compound, the “The level of expressed mRNA in the presence of chemical substance/The level of expressed mRNA in the absence of chemical substance” value (yeast gene YEL063C) was 0.7, the “The level of expressed mRNA in the presence of chemical substance/The level of expressed mRNA in the absence of chemical substance” value (yeast gene YEL065W) was 4.3 and the “The level of expressed mRNA in the presence of chemical substance/The level of expressed mRNA in the absence of chemical substance” value (yeast gene YER053C) was 2.8. For the same compound, the “The level of expressed mRNA in the presence of chemical substance/The level of expressed mRNA in the absence of chemical substance” value (yeast gene YFL011W) was 0.8, the “The level of expressed mRNA in the presence of chemical substance/The level of expressed mRNA in the absence of chemical substance” value (yeast gene YFL041W) was 3.4 and the “The level of expressed mRNA in the presence of chemical substance/The level of expressed mRNA in the absence of chemical substance” value (yeast gene YFL050C) was 0.8. The “The level of expressed mRNA in the presence of chemical substance/The level of expressed mRNA in the absence of chemical substance” value (yeast gene YFL054C) was 1.1, the “The level of expressed mRNA in the presence of chemical substance/The level of expressed mRNA in the absence of chemical substance” value (yeast gene YGL006W) was 1.3 and the “The level of expressed mRNA in the presence of chemical substance/The level of expressed mRNA in the absence of chemical substance” value (yeast gene YGL008C) was 1.4. The “The level of expressed mRNA in the presence of chemical substance/The level of expressed mRNA in the absence of chemical substance” value (yeast gene YGL104C) was 1.2, the “The level of expressed mRNA in the presence of chemical substance/The level of expressed mRNA in the absence of chemical substance” value (yeast gene YGL167C) was 1.2 and the “The level of expressed mRNA in the presence of chemical substance/The level of expressed mRNA in the absence of chemical substance” value (yeast gene YGL255W) was 1.0. The “The level of expressed mRNA in the presence of chemical substance/The level of expressed mRNA in the absence of chemical substance” value (yeast gene YGR055W) was 0.6, the “The level of expressed mRNA in the presence of chemical substance/The level of expressed mRNA in the absence of chemical substance” value (yeast gene YGR065C) was 2.4 and the “The level of expressed mRNA in the presence of chemical substance/The level of expressed mRNA in the absence of chemical substance” value (yeast gene YGR082W) was 0.9. For the same compound, the “The level of expressed mRNA in the presence of chemical substance/The level of expressed mRNA in the absence of chemical substance” value (yeast gene YGR096W) was 0.9, the “The level of expressed mRNA in the presence of chemical substance/The level of expressed mRNA in the absence of chemical substance” value (yeast gene YGR138C) was 0.7 and the “The level of expressed mRNA in the presence of chemical substance/The level of expressed mRNA in the absence of chemical substance” value (yeast gene YGR191W) was 0.7. The “The level of expressed mRNA in the presence of chemical substance/The level of expressed mRNA in the absence of chemical substance” value (yeast gene YGR197C) was 1.3 and the “The level of expressed mRNA in the presence of chemical substance/The level of expressed mRNA in the absence of chemical substance” value (yeast gene YGR224W) was 0.4.
